Values of other authors in patent EP0475894A1, “Gemfibrozil formulations” (WARNER-LAMBERT COMPANY, priority 1990, dated 1992).

Settings: particularly in a highly acidic medium

SMILES: Cc1ccc(C)c(OCCCC(C)(C)C(=O)O)c1 [Gemfibrozil, 5-(2,5-dimethylphenoxy)-2,2-dimethylpentanoic acid]
- solubility in water: very poor solubility in water
